Assay type in all cases: biochemical
The target of one experiment is T1, AKT1 (Homo sapiens, UniProt P31749).
T1 construct: purchased Invitrogen P2999
The experiment is described as follows: AKT1 enzymatic assay (KinEASE-STK S3 HTRF kit). Conditions: 2 nM enzyme, 10 μM ATP, 2 μM S3-biotin. How it is done: (§1) The following methods were used to determine the inhibitory effect of the compounds of the present disclosure on the kinase activity of AKT1/AKT2/AKT3 in vitro. The experimental methodology is briefly described as follows:
(§2) The enzyme activity of AKT1 (Invitrogen, P2999), AKT2 (Invitrogen, PV3184) and AKT3 (Invitrogen, PV3185) was determined using a KinEASE-STK S3 kit (Cisbio, 62ST3PEC). Test compounds were each first subjected to 3-fold gradient dilution with DMSO from 500 μM to obtain a total of 11 concentrations. The 5× buffer in the kit was diluted to 1×buffer, and DTT (Sigma, 43816-10ML) and MgCl2 were added to make the buffer contain 1 mM DTT and 5 mM MgCl2. Compounds were each subjected to 20-fold dilution with 1× buffer for later use. The enzyme solution was obtained by diluting the AKT1/AKT2/AKT3 kinase with 1× buffer. ATP (Invitrogen, PV3227) and S3-biotin in the kit were diluted with 1× buffer to obtain a substrate-ATP mixture solution for later use. 2 μL of the enzyme solution and 4 μL of the compound solution were added to each well of a 384-well plate (Corning, 4513), and the mixture was incubated at room temperature for 30 min, followed by addition of 4 μL of the ATP and S3-biotin mixture solution. The resulting mixture was incubated at room temperature for 90 min. AKT1 enzyme reaction conditions were a final concentration of 2 nM for enzyme, a final concentration of 10 μM for ATP, and a final concentration of 2 μM for S3-biotin. AKT2 enzyme reaction conditions were a final concentration of 5 nM for enzyme, a final concentration of 10 μM for ATP, and a final concentration of 2 μM for S3-biotin. AKT3 enzyme reaction conditions were a final concentration of 0.4 nM for enzyme, a final concentration of 45 μM for ATP, and a final concentration of 2 μM for S3-biotin. The detection solution was prepared by diluting the S3-cryptate and streptavidin-XL665 with the detection buffer in the kit. After incubation, 10 μL of the detection solution was added to each well, the final concentration of S3-cryptate was a concentration obtained by 200-fold dilution of the stock solution, and the final concentration of streptavidin-XL665 was 125 nM. The mixture was incubated at room temperature for 60 min, values of signals emitted at […] and 620 nm after excitation at 337 nm were measured by using an HTRF module of a multi-functional microplate detector (BMG Labtech, PHERAstar FS), and the reading ratio was multiplied by 10,000 to obtain a specific value. Dose-response curves were drawn according to the concentration of the compounds and the specific values by using Graphpad Prism software, and the IC50 values for the inhibitory activity of the compounds were calculated.
On the technique in general: TR-FRET usually uses a lanthanide donor and a delayed reading to cut background.

The target in another experiment is T2, AKT3 (Homo sapiens, UniProt Q9Y243).
T2 construct: purchased Invitrogen PV3185
The experiment is described as follows: AKT3 enzymatic assay (KinEASE-STK S3 HTRF kit). The following applies: 0.4 nM enzyme, 45 μM ATP, 2 μM S3-biotin. The procedure:
as §1, §2

In the next experiment the target is T3, AKT2 (Homo sapiens, UniProt P31751).
T3 construct: purchased Invitrogen PV3184
The experiment is described as follows: AKT2 enzymatic assay (KinEASE-STK S3 HTRF kit). Conditions: 5 nM enzyme, 10 μM ATP, 2 μM S3-biotin. How it is done: as §1, §2

A word on the IC50: it is the midpoint of a concentration-inhibition curve. Low readings indicate higher potency, high ones lower potency.

T3 sequence (P31751 whole entry): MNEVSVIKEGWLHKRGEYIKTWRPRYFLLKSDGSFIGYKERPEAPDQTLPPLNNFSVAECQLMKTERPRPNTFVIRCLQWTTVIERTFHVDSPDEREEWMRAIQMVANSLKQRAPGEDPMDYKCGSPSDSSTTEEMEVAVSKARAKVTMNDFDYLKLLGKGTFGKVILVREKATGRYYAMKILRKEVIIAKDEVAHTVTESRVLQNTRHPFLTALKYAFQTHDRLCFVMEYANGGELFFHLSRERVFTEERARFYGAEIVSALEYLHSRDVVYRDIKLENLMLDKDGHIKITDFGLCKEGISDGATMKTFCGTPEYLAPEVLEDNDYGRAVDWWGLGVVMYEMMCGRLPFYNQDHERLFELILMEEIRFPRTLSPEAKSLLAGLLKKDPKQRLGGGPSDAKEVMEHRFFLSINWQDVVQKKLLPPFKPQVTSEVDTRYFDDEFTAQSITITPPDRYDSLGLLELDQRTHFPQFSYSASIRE
T2 sequence (Q9Y243 whole entry): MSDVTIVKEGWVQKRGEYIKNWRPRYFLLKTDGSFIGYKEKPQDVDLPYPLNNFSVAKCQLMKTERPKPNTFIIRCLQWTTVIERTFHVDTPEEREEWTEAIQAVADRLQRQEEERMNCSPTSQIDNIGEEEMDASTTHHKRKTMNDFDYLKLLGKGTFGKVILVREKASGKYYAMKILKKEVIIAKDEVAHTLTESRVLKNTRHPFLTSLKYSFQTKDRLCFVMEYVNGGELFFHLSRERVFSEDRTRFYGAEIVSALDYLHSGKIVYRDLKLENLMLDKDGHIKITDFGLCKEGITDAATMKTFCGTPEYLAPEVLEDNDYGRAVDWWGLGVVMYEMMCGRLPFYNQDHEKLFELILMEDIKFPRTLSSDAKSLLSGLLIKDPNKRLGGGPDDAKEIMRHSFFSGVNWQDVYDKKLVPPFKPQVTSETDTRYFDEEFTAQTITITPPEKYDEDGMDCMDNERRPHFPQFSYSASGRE
T1 sequence (P31749 whole entry): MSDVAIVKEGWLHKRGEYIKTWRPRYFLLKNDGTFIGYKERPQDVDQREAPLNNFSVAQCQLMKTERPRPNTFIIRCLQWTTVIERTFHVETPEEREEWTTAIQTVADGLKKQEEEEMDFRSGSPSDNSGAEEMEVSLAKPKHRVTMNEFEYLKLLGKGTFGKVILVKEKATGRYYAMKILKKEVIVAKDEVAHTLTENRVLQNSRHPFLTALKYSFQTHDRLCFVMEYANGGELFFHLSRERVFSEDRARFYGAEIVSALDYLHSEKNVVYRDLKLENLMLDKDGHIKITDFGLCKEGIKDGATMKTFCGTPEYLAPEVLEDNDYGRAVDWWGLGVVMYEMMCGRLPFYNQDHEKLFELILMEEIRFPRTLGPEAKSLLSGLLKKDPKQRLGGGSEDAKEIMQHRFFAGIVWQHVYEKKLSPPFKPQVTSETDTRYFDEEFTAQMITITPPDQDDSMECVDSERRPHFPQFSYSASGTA

With `CC(C)NC[C@@H](C(=O)N1[C@@H]2CC[C@H]1CN(c1ncnc3[nH]ccc13)C2)c1ccc(Cl)cc1` [Example 1, (S)-1-((1R,5S)-3-(7H-pyrrolo[2,3-d]pyrimidin-4-yl)-3,8-diazabicyclo[3.2.1]octan-8-yl)-2-(4-chlorophenyl)-3-(isopropylamino)propan-1-one], the IC50 came to 20 nM at AKT1, 27.6 nM against AKT3 and 64.9 nM against AKT2.
Consider `Cc1c[nH]c2ncnc(N3C[C@H]4CC[C@@H](C3)N4C(=O)[C@H](CNC(C)C)c3ccc(Cl)cc3)c12` [Example 3, (S)-2-(4-chlorophenyl)-3-(isopropylamino)-1-((1R,5S)-3-(5-methyl-7H-pyrrolo[2,3-d]pyrimidin-4-yl)-3,8-diazabicyclo[3.2.1]octan-8-yl]propan-1-one], for which the IC50 against AKT1 was 5.2 nM; against AKT3, 1.2 nM; at AKT2, 3.9 nM.
For `CC(C)NC[C@@H](C(=O)N1C2CCCC1CN(c1ncnc3[nH]ccc13)C2)c1ccc(Cl)cc1` [Example 5, (2S)-1-(3-(7H-pyrrolo[2,3-d]pyrimidin-4-yl)-3,9-diazabicyclo[3.3.1]nonan-9-yl)-2-(4-chlorophenyl)-3-(isopropylamino)propan-1-one], in that order: 68.1 nM, 112 nM and 70.1 nM.
`CC(C)NC[C@@H](C(=O)N1C2COCC1CN(c1ncnc3[nH]ccc13)C2)c1ccc(Cl)cc1` [Example 6, (2S)-1-(7-(7H-pyrrolo[2,3-d]pyrimidin-4-yl)-3-oxa-7,9-diazabicyclo[3.3.1]nonan-9-yl)-2-(4-chlorophenyl)-3-(isopropylamino)propan-1-one]: the 50% inhibitory concentration (IC50) turned out to be 88.4 nM at AKT1, 268 nM against AKT3 and 141 nM against AKT2.
In the case of `CC(C)NC[C@@H](C(=O)N1CC2COCC(C1)N2c1ncnc2[nH]ccc12)c1ccc(Cl)cc1` [Example 7, (2S)-1-(9-(7H-pyrrolo[2,3-d]pyrimidin-4-yl)-3-oxa-7,9-diazabicyclo[3.3.1]nonan-7-yl)-2-(4-chlorophenyl)-3-(isopropylamino)-propan-1-one], the IC50 against AKT1 worked out at 82 nM; at AKT3, 60 nM; against AKT2, 270 nM.
The corresponding values for `CC(C)NC[C@@H](C(=O)N1[C@@H]2CC[C@H]1CN(c1ncnc3c1[C@H](C)C[C@H]3F)C2)c1ccc(Cl)cc1` [Example 8, (S)-2-(4-chlorophenyl)-1-((1R,5S)-3-((5R,7R)-7-fluoro-5-methyl-6,7-dihydro-5H-cyclopenta[d]pyrimidin-4-yl)-3,8-diazabicyclo[3.2.1]octan-8-yl)-3-(isopropylamino)propan-1-one] are 56.2 nM, 66 nM and 54 nM.
Consider `Cc1c[nH]c2nccc(N3C[C@H]4CC[C@@H](C3)N4C(=O)[C@H](CNC(C)C)c3ccc(Cl)cc3)c12` [Example 9, (S)-2-(4-chlorophenyl)-3-(isopropylamino)-1-((1R,5S)-3-(3-methyl-1H-pyrrolo[2,3-b]pyridin-4-yl)-3,8-diazabicyclo[3.2.1]octan-8-yl)propan-1-one], for which the IC50 turned out to be 19.6 nM against AKT1, 6.3 nM against AKT3 and 13.1 nM against AKT2.

The values are drawn from patent publication US20230148417A1, “FUSED BICYCLIC DERIVATIVE, PREPARATION METHOD THEREFOR, AND PHARMACEUTICAL USE THEREOF” (Jiangsu Hengrui Pharmaceuticals Co., Ltd., priority 2020, published 2023).
